Test results reported in ChEMBL document CHEMBL1134378 (J Med Chem, 2001).

Assays:
[1] = Inhibitory activity against type A neuraminidase (N9); set-up: species or system unidentified influenza virus
[2] = Inhibitory activity against type A neuraminidase (N2); set-up: species or system unidentified influenza virus

With C=C(C)NC(C(CC)CC)[C@@H]1[C@H](O)[C@@H](C(=O)O)C[C@H]1N=C(N)N (some centres not stated) the “Log IC50” value [1] was -10 and the “Log IC50” value [2] was -10.
